Read-outs that look alike come from different tables or passages of the source.
Columns and labels:
Assay in all cases: Test C pre-/postemergence herbicide test
lambsquarters = type: in vivo, Chenopodium album; settings: for pest or weed control at 62 g/ha: 62 g ai/ha, preemergence, scale 0 to 100; for pest or weed control at 125 g/ha: 125 g ai/ha, scale 0 (no effect) to 100 (complete control)
Outline: (§1)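 Seeds were planted and sprayed preemergence with test chemicals in a non-phytotoxic solvent mixture containing surfactant; postemergence treatments went onto plants 2 to 18 cm tall (1- to 4-leaf stage). After 12 to 14 days in a greenhouse, injury was rated visually against untreated controls on a 0–100 scale.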

[1] = test system: common (oilseed) sunflower; type: in vivo, Helianthus annuus; settings: for pest or weed control at 62 g/ha: 62 g ai/ha, preemergence, scale 0 to 100
Outline: as §1

cocklebur = type: in vivo, Xanthium strumarium; settings: Xanthium strumarium, pre-emergence, 312 h; for pest or weed control at 62 g/ha: 62 g ai/ha, preemergence, scale 0 to 100; for pest or weed control at 62 g/ha / pest or weed control at 125 g/ha / pest or weed control at 250 g/ha: read-out: Plant response rating, Cocklebur; for pest or weed control at 125 g/ha: 125 g ai/ha, scale 0 (no effect) to 100 (complete control); for pest or weed control at 250 g/ha: 250 g ai/ha
Outline: as §1

velvetleaf = type: in vivo, Abutilon theophrasti; settings: for pest or weed control at 62 g/ha: 62 g ai/ha, preemergence, scale 0 to 100
Outline: as §1

goosegrass = type: in vivo, Eleusine indica; settings: for pest or weed control at 62 g/ha: 62 g ai/ha, preemergence, scale 0 to 100; for pest or weed control at 125 g/ha: 125 g ai/ha, scale 0 (no effect) to 100 (complete control)
Outline: as §1

soybean = type: in vivo, Glycine max; settings: for plant injury at 62 g/ha: 62 g ai/ha, preemergence, scale 0 to 100
Outline: as §1

yellow nutsedge = type: in vivo, Cyperus esculentus; settings: for pest or weed control at 62 g/ha: 62 g ai/ha, preemergence, scale 0 to 100; for pest or weed control at 125 g/ha: 125 g ai/ha, scale 0 (no effect) to 100 (complete control)
Outline: as §1

[2] = Chenopodium album, pre-emergence, read-out: Plant response rating, Lambsquarters
[3] = Chenopodium album, pre-emergence, visual, 12 to 14 days, read-out: Plant response rating, Lambsquarters
[4] = Preemergence, 500 g ai/ha, scale 0 to 100, 0 no effect, 100 complete control
[5] = Helianthus annuus, pre-emergence, read-out: Plant response rating, Sunflower
[6] = Abutilon theophrasti, pre-emergence, read-out: Plant response rating, Velvetleaf
[7] = Eleusine indica, pre-emergence, 312 h, read-out: Plant response rating, Goosegrass
[8] = Eleusine indica, pre-emergence, 312 h, visual, 12 to 14 days, read-out: Plant response rating, Goosegrass
[9] = Glycine max, pre-emergence, read-out: Plant response rating, Soybean
[10] = Cyperus, pre-emergence, read-out: Plant response rating, Nutsedge, Yellow
[11] = Cyperus, pre-emergence, visual, 12 to 14 days, read-out: Plant response rating, Nutsedge, Yellow

**Q.** What does the source list for `CCn1nc(C(C)(C)C)cc1C(=O)Nc1cc(C(=O)N(C)C)ccn1` [Compound 156, 2-[[[3-(1,1-dimethylethyl)-1-ethyl-1H-pyrazol-5-yl]carbonyl]amino]-N,N-dimethyl-4-pyridinecarboxamide]?
**A.** pest or weed control at 62 g/ha (lambsquarters; [2]): 100%; pest or weed control at 125 g/ha (lambsquarters; [3]): 100%; Lambsquarters plant response rating (lambsquarters; [4]): 100; pest or weed control at 62 g/ha [1, 5]: 25%; pest or weed control at 125 g/ha ([1]; Helianthus annuus, pre-emergence, 125 g ai/ha, scale 0 (no effect) to 100 (complete control), visual, 12 to 14 days, read-out: Plant response rating, Sunflower): 45%; Sunflower plant response rating [1, 4]: 85; pest or weed control at 62 g/ha (cocklebur): 63%; pest or weed control at 125 g/ha (cocklebur; visual, 12 to 14 days): 98%; pest or weed control at 250 g/ha (cocklebur; scale 0 to 100 (0 no effect, 100 complete control), visual, 12 to 14 days): 100%; pest or weed control at 500 g/ha (cocklebur; Preemergence, 500 g ai/ha, scale 0 to 100, 0 no effect, 100 complete control, read-out: Cocklebur plant response rating): 100%; pest or weed control at 62 g/ha (velvetleaf; [6]): 43%; pest or weed control at 125 g/ha (velvetleaf; Abutilon theophrasti, pre-emergence, 125 g ai/ha, scale 0 (no effect) to 100 (complete control), visual, 12 to 14 days, read-out: Plant response rating, Velvetleaf): 63%; Velvetleaf plant response rating (velvetleaf; [4]): 100; pest or weed control at 62 g/ha (goosegrass; [7]): 83%; pest or weed control at 125 g/ha (goosegrass; [8]): 90%; Goosegrass plant response rating (goosegrass; [4]): 95; plant injury at 62 g/ha (soybean; [9]): 33%; plant injury at 125 g/ha (soybean; Glycine max, pre-emergence, 125 g ai/ha, scale 0 (no effect) to 100 (complete control), visual, 12 to 14 days, read-out: Plant response rating, Soybean): 50%; Soybean plant response rating (soybean; [4]): 100; pest or weed control at 62 g/ha (yellow nutsedge; [10]): 35%; pest or weed control at 125 g/ha (yellow nutsedge; [11]): 60%; Nutsedge, Yellow plant response rating (yellow nutsedge; [4]): 85

**Q.** Which results are given for `CCNC(=O)c1cccc(NC(=O)c2nn(C(C)(C)C)cc2Br)c1` [Compound 221, 4-bromo-1-(1,1-dimethylethyl)-N-[3-[(ethylamino)carbonyl]phenyl]-1H-pyrazole-3-carboxamide]?
**A.** pest or weed control at 62 g/ha (lambsquarters; [2]): 0%; pest or weed control at 125 g/ha (lambsquarters; [3]): 20%; pest or weed control at 250 g/ha (lambsquarters; Chenopodium album, pre-emergence, 250 g ai/ha, scale 0-100, read-out: Plant response rating, Lambsquarters): 90%; pest or weed control at 500 g/ha (lambsquarters; Chenopodium album, pre-emergence, 500 g ai/ha, scale 0 to 100 (0 no effect, 100 complete control), visual, 12 to 14 days, read-out: Plant response rating, Lambsquarters): 100%; pest or weed control at 62 g/ha [1, 5]: 0%; pest or weed control at 250 g/ha ([1]; Helianthus annuus, pre-emergence, 250 g ai/ha, scale 0-100, read-out: Plant response rating, Sunflower): 0%; pest or weed control at 500 g/ha ([1]; Helianthus annuus, pre-emergence, 500 g ai/ha, scale 0 to 100 (0 no effect, 100 complete control), visual, 12 to 14 days, read-out: Plant response rating, Sunflower): 30%; pest or weed control at 62 g/ha (cocklebur): 0%; pest or weed control at 125 g/ha (cocklebur; visual, 12 to 14 days): 0%; pest or weed control at 250 g/ha (cocklebur; scale 0-100): 0%; pest or weed control at 62 g/ha (velvetleaf; [6]): 0%; pest or weed control at 250 g/ha (velvetleaf; Abutilon theophrasti, pre-emergence, 250 g ai/ha, scale 0-100, read-out: Plant response rating, Velvetleaf): 60%; pest or weed control at 500 g/ha (velvetleaf; Abutilon theophrasti, pre-emergence, 500 g ai/ha, scale 0 to 100 (0 no effect, 100 complete control), visual, 12 to 14 days, read-out: Plant response rating, Velvetleaf): 80%; pest or weed control at 62 g/ha (goosegrass; [7]): 0%; pest or weed control at 125 g/ha (goosegrass; [8]): 0%; pest or weed control at 250 g/ha (goosegrass; Eleusine indica, pre-emergence, 312 h, 250 g ai/ha, scale 0-100, read-out: Plant response rating, Goosegrass): 0%; pest or weed control at 500 g/ha (goosegrass; Eleusine indica, pre-emergence, 312 h, 500 g ai/ha, scale 0 to 100 (0 no effect, 100 complete control), visual, 12 to 14 days, read-out: Plant response rating, Goosegrass): 50%; plant injury at 62 g/ha (soybean; [9]): 0%; plant injury at 250 g/ha (soybean; Glycine max, pre-emergence, 250 g ai/ha, scale 0-100, read-out: Plant response rating, Soybean): 0%; plant injury at 500 g/ha (soybean; Glycine max, pre-emergence, 500 g ai/ha, scale 0 to 100 (0 no effect, 100 complete control), visual, 12 to 14 days, read-out: Plant response rating, Soybean): 20%; pest or weed control at 62 g/ha (yellow nutsedge; [10]): 0%; pest or weed control at 125 g/ha (yellow nutsedge; [11]): 0%; pest or weed control at 250 g/ha (yellow nutsedge; Cyperus, pre-emergence, 250 g ai/ha, scale 0-100, read-out: Plant response rating, Nutsedge, Yellow): 0%; pest or weed control at 500 g/ha (yellow nutsedge; Cyperus, pre-emergence, 500 g ai/ha, scale 0 to 100 (0 no effect, 100 complete control), visual, 12 to 14 days, read-out: Plant response rating, Nutsedge, Yellow): 0%
